Test results published in patent US8969554B2, “6-acyl-1,2,4-triazine-3,5-dione derivative and herbicides” (Kumiai Chemical Industry Co., Ltd., priority 2010, dated 2015).

Key:
Type in all cases: in vivo
Indian millet [1] = assay: Herbicidal activity by field foliage treatment (Test example 3); design: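 index 0 to 10 in 10% steps of herbicidal effect with 10 meaning complete death and 0 below 10%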; conditions: 1000 g effective component per hectare, day 14 after the treatment
Outline: (§1)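 Greenhouse foliar treatment at 1000 g a.i./ha of 2-week-old plants; herbicidal score at day 14.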

A. retroflexus [2] = assay: as above; design: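 index 0 to 10 in 10% steps of herbicidal effect with 10 meaning complete death and 0 below 10%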; conditions: 1000 g effective component per hectare, day 14 after the treatment
Outline: as §1

Echinochloa crus-galli [3] = assay: as above; design: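 index 0 to 10 in 10% steps of herbicidal effect with 10 meaning complete death and 0 below 10%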; conditions: 1000 g effective component per hectare, day 14 after the treatment
Outline: (§2)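 Herbicidal effect was rated on day 14 following a foliar spray of 1000 g active ingredient per hectare, applied as water-diluted wettable powder at 1000 L/ha. Plants had been raised for 2 weeks in field soil under greenhouse conditions before spraying.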

Echinochloa crus-galli [4] = assay: Herbicidal activity by field soil treatment (Test example 2); design: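 index 0 to 10 in 10% steps of herbicidal effect with 10 meaning complete death and 0 below 10%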; conditions: 1000 g effective component per hectare, day 21 after the treatment
Outline: (§3)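 Pre-covered sown seed in field-soil pots (80 cm^2) got a soil-surface application of 1000 g/ha active ingredient, sprayed as a diluted wettable powder at 1000 L/ha water volume. Greenhouse-grown; herbicidal activity graded by criteria at 21 days post-application.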

Indian millet [5] = assay: as above; design: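 index 0 to 10 in 10% steps of herbicidal effect with 10 meaning complete death and 0 below 10%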; conditions: 1000 g effective component per hectare, day 21 after the treatment
Outline: as §3

A. retroflexus [6] = assay: as above; design: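 index 0 to 10 in 10% steps of herbicidal effect with 10 meaning complete death and 0 below 10%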; conditions: 1000 g effective component per hectare, day 21 after the treatment
Outline: as §3

Monochoria vaginalis = assay: Herbicidal activity by paddy field soil treatment (Test Example 1); design: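 index 0 to 10 in 10% steps of herbicidal effect with 10 meaning complete death and 0 below 10%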; conditions: 1000 g of effective component per hectare, evaluated on day 21 after the treatment, criteria of Table 72
Outline: (§4)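 Using sown, 3 cm-flooded paddy soil pots, we apply diluted wettable powder to the water on day 1 post-sowing (1000 g active/ha), keep plants in a greenhouse, and grade herbicidal effects 21 days post-treatment.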

Echinochloa oryzicola = assay: as above; design: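 index 0 to 10 in 10% steps of herbicidal effect with 10 meaning complete death and 0 below 10%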; conditions: 1000 g of effective component per hectare, evaluated on day 21 after the treatment, criteria of Table 72
Outline: as §4

Scirpus juncoides Rocxb. = assay: as above; design: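 index 0 to 10 in 10% steps of herbicidal effect with 10 meaning complete death and 0 below 10%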; conditions: applied on water surface, 1000 g of effective component per hectare, day 21 after the treatment
Outline: as §4

Setaria viridis = assay: Herbicidal activity by field foliage treatment (Test example 3); conditions: 1000 g effective component per hectare, day 14 after the treatment;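 further: index 0 to 10 in 10% steps of herbicidal effect with 10 meaning complete death and 0 below 10%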
Outline: as §2

foxtail = assay: Herbicidal activity by field soil treatment (Test example 2); conditions: 1000 g effective component per hectare, day 21 after the treatment;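 further: index 0 to 10 in 10% steps of herbicidal effect with 10 meaning complete death and 0 below 10%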
Outline: as §3

SMILES | herbicidal effect index, Abutilon theophrasti (Indian millet [1]) | herbicidal effect index, Amaranthus retroflexus (A. retroflexus [2]) | herbicidal effect index, Echinochloa crus-galli (Echinochloa crus-galli [3]) | herbicidal effect index, Echinochloa crus-galli (Echinochloa crus-galli [4]) | herbicidal effect index, Abutilon theophrasti (Indian millet [5]) | herbicidal effect index, Amaranthus retroflexus (A. retroflexus [6]) | Herbicidal effects index number, Monochoria vaginalis (Monochoria vaginalis) | Herbicidal effects index number, Echinochloa oryzicola (Echinochloa oryzicola) | herbicidal effect index, S. juncoides Rocxb. (Scirpus juncoides Rocxb.) | herbicidal effect index, Setaria viridis (Setaria viridis) | herbicidal effect index, Setaria viridis (foxtail)
Cc1cccc(OC(F)(F)F)c1-n1c(=O)c(C(=O)C2=C(O)CCCC2=O)nn(C)c1=O [I-285] | 7 | 8 | 9 | 10 | 10 | 10 | 10 | 10 | 10 | 9 | 10
COc1ccc(Cl)cc1-n1c(=O)c(C(=O)C2=C(O)CCCC2=O)nn(C)c1=O [I-134] | 10 | 10 | 10 | 10 | 10 | 10 | 10 | 10 | 10 | 10 | 10
Cn1nc(C(=O)C2=C(O)CCCC2=O)c(=O)n(-c2cccc(F)c2)c1=O [I-55] | 10 | 10 | 10 | 10 | 10 | 10 | 10 | 10 | 10 | 10 | 10
Cc1ccc(-n2c(=O)c(C(=O)C3=C(O)CCCC3=O)nn(C)c2=O)c(Cl)c1 [I-128] | 10 | 10 | 9 | 8 | 10 | 10 | 9 | 8 | 10 | 10 | 9
Cn1nc(C(=O)C2=C(O)CCCC2=O)c(=O)n(-c2cc(Cl)ccc2Cl)c1=O [I-85] | 10 | 10 | 9 | 9 | 10 | 10 | 10 | 10 | 10 | 10 | 9
Cn1nc(C(=O)C2=C(O)CCCC2=O)c(=O)n(N2CCCCC2)c1=O [I-304] | 9 | 10 | 10 | 10 | 10 | 10 | 10 | 10 | 10 | 10 | 9
Cn1nc(C(=O)C2=C(O)CCCC2=O)c(=O)n(-c2cc(F)ccc2F)c1=O [I-79] | 10 | 10 | 10 | 9 | 10 | 10 | 10 | 10 | 10 | 10 | 10
COCCCn1c(=O)c(C(=O)C2=C(O)CCCC2=O)nn(C)c1=O [I-41] | 10 | 10 | 10 | 9 | 8 | 10 | 8 | 8 | 10 | 10 | 7
Cn1nc(C(=O)C2=C(O)CCCC2=O)c(=O)n(-c2ccccc2Cl)c1=O [I-51] | 10 | 10 | 10 | 10 | 10 | 10 | 10 | 10 | 10 | 10 | 10
COc1cc(-n2c(=O)c(C(=O)C3=C(O)CCCC3=O)nn(C)c2=O)cc(OC)c1OC [I-169] | 9 | 8 | 9 | 10 | 9 | 10 | 10 | 10 | 10 | 9 | 10
Cn1nc(C(=O)C2=C(O)CCCC2=O)c(=O)n(-c2ccccc2F)c1=O [I-54] | 10 | 10 | 10 | 10 | 10 | 10 | 10 | 10 | 10 | 10 | 10
Cc1ccc(F)c(-n2c(=O)c(C(=O)C3=C(O)CCCC3=O)nn(C)c2=O)c1 [I-109] | 9 | 9 | 10 | 9 | 10 | 10 | 10 | 10 | 10 | 7 | 6
Cn1nc(C(=O)C2=C(O)CCCC2=O)c(=O)n(-c2ccccc2-c2ccccc2)c1=O [I-269] | 9 | 10 | 10 | 8 | 9 | 10 | 8 | 8 | 10 | 8 | 9
Cc1cc(Br)ccc1-n1c(=O)c(C(=O)C2=C(O)CCCC2=O)nn(C)c1=O [I-282] | 9 | 8 | 8 | 10 | 9 | 10 | 10 | 10 | 10 | 7 | 10
Cn1nc(C(=O)C2=C(O)CCCC2=O)c(=O)n(-c2ccc([N+](=O)[O-])cc2)c1=O [I-68] | 10 | 10 | 10 | 10 | 10 | 10 | 10 | 10 | 10 | 8 | 10
